According to patent US7741348B2, “Bisheterocycle tandem compounds useful as antiviral agents, the uses thereof and the compositions comprising such compounds” (Shanghai Institute of Materia Medica, Chinese Academy of …, priority 2005, dated 2010):
pIC50: −log10 of the molar value. ≈ marks a conversion by molar mass, not a printed value. Read-outs that look alike come from different tables or passages of the source.

What was measured:
Format in all cases: cell-based
influenza A virus = assay: Anti influenza A virus activity, cytopathic effect (CPE) in MDCK cells
Source text: (§1) 4. Screening of the samples for the anti-influenza virus A and B activity: MDCK (canine kidney) cells were used as the virus host to test the inhibition effect of the compounds of the present invention on the cytopathic effect (CPE) of the cells caused by the virus.

[1] = Cytotoxicity to HepG2.2.15 cells (MTT method); settings: human, HepG2.2.15 cells (HBV-transgenic human hepatoma cells), 50% death concentration, eighth day
Source text: (§2) Hepatitis B virus (HBV) transgenic human hepatoma carcinoma cell, HepG2.2.15 cell line, can secrete hepatitis B virus particles (containing antigen and DNA) into supernatant when being cultured.
(§3) Under action of antiviral drugs, the contents of HBsAg, HBeAg and viral DNA secreted from cells into the supernatant were detected and are compared with the contents of control groups without drugs, so that the antiviral activity of the compounds of the present invention can be measured as well as the cytotoxic effect of compounds of the present invention. The value concentration of the compounds of the present invention which caused 50% of cells dead and was measured with MTT method was CC50; and the value concentration of the compounds of the present invention which inhibited the secretion of HBsAg and HBeAg detected by ELISA method and inhibited 50% of viral DNA replication detected by fluorescent quantification PCR method was IC50.
(§4) HepG2.2.15 cells were inoculated on a 96-well plate, and the compounds of the present invention were added next day. The medium and the compound solutions of the same concentration were renewed periodically. The culture supernatants were collected on the eighth day to be detected. MTT was added to the cells on the 96-well plate, and MTT dissolving liquid was added after 4 hours to be reacted overnight. OD570 was measured next day on microplate reader. And the cytotoxicity of the compounds of the present invention to the HepG2.2.15 cells, the effect of the compounds of the present invention on the growth of the cells, and the concentration of the compound of the present invention (CC50) causing 50% of the cells dead were estimated according to the OD values.

hepatitis B virus (HBV) = assay: HBV-DNA replication in HepG2.2.15 culture supernatant (fluorescent quantification PCR); settings: for DNA replication IC89: ICX: concentration with 89% inhibition of HBV-DNA replication; for pIC50: Hepatitis B virus; for DNA replication IC12: ICX: concentration with 12% inhibition of HBV-DNA replication
Source text: as §2, §3, §4
A suitable amount of culture supernatant was added into a same volume of virus extract solution, and was boiled after mixed uniformly, then centrifuged at 10000 rpm for 5 min under room temperature. A suitable amount of supernatant was collected for PCR amplification. Five HBV-DNA standard samples were used to set a standard curve. According to the obtained viral DNA replication value, the inhibition rates of HBV-DNA replication of the compound of the present invention at different concentrations were calculated, and then the half inhibition rates of the compounds were calculated to obtain IC50. For the samples that can not be calculated for IC50 value, they can be represented by ICX and given the corresponding concentration values.

[2] = system: MDCK (canine kidney) cells; assay: 50% toxicity concentration in the anti-influenza screen (MDCK cells); settings: 50% toxity concentration, Table 3-2 (influenza screen, MDCK cells)
Source text: as §1

[3] = HepG2.2.15 supernatant, eighth day, fluorescent quantification PCR, read-out: DNA replication IC50
[4] = HepG2.2.15, read-out: DNA replication IC50

SMILES | CC50 [1] | pIC50 (hepatitis B virus (HBV); [3]) | other results
NC(=O)c1ncn([C@@H]2O[C@H](CO)[C@@H](O)[C@H]2O)n1 [Ribavirin, reference compound] | – | – | IC50 (influenza A virus): 3.73 µg/mL (≈ 15.3 µM)
CC(C)Cc1sc(-c2nccs2)nc1C(=O)NCc1ccccc1 [Compound C357] | 80 µM | – | DNA replication IC89 (hepatitis B virus (HBV); IC50 not calculable): IC89 = 33 uM
CCOC(=O)c1nc(-c2nccs2)[nH]c1C1CCC1 [Compound C277] | > 100 µM | 5.51 | –
COc1ccccc1C(=O)N[C@H](c1nc(-c2nc(C(=O)O)c(C)o2)cs1)C(C)C [Wang415.46] | – | – | TC50 [2]: 333.33 µg/mL (≈ 802 µM); IC50 (influenza A virus): 29 µg/mL (≈ 69.8 µM)
C=CCC(=O)N[C@H](c1nc(-c2nc(C(=O)N[C@@H](C)c3nc(C(=O)OC)co3)c(C)o2)cs1)C(C)C [Wang 501.56-2] | – | – | TC50 [2]: 577.35 µg/mL (≈ 1150 µM); IC50 (influenza A virus): 68.7 µg/mL (≈ 137 µM)
CCOC(=O)c1nc(-c2cccs2)[nH]c1/C=C/c1ccccc1 [Compound C324] | 61 µM | – | –
CCOC(=O)c1nc(-c2nc3cc(OC)ccc3s2)sc1CC(C)C [Compound C376] | 127 µM | 4.64 | –
CCCc1ccc(-c2nc(C(=O)OCC)c(CC(C)C)s2)s1 [Compound C337] | 60 µM | – | –
CCOC(=O)c1nc(-c2ncc(C)s2)sc1CC(C)C [Compound C310] | > 100 µM | 6.85 | –
C=CCCC(=O)N[C@H](c1nc(-c2nc(C(=O)OC)c(C)o2)cs1)C(C)C [Wang 377.46-2] | – | – | TC50 [2]: 577.35 µg/mL (≈ 1530 µM); IC50 (influenza A virus): 259 µg/mL (≈ 685 µM)
C=CCC(=O)N[C@H](c1nc(-c2nc(C(=O)OC)c(C)o2)cs1)C(C)C [Wang 363.43-2] | – | – | TC50 [2]: 500 µg/mL (≈ 1380 µM); IC50 (influenza A virus): 0.42 µg/mL (≈ 1.16 µM)
CCOC(=O)c1nc(-c2cccs2)[nH]c1C1CC1 [Compound C262] | 34.4 µM | 5.37 | –
CCOC(=O)c1nc(-c2cccs2)[nH]c1C1CCCCC1 [Compound C304] | > 100 µM | 5.35 | –
CCC(=O)N[C@H](c1nc(-c2nc(C(=O)N[C@@H](C)c3nc(C(=O)OC)co3)c(C)o2)cs1)C(C)C [Wang489.55] | – | – | TC50 [2]: 577.35 µg/mL (≈ 1180 µM); IC50 (influenza A virus): 160 µg/mL (≈ 327 µM)
COC(=O)c1coc([C@H](C)NC(=O)c2nc(-c3csc([C@@H](NC(=O)Cc4ccccc4)C(C)C)n3)oc2C)n1 [Wang 551.62] | – | – | TC50 [2]: 303.69 µg/mL (≈ 551 µM); IC50 (influenza A virus): 1.18 µg/mL (≈ 2.14 µM)
COC(=O)c1coc([C@H](C)NC(=O)c2nc(-c3csc([C@@H](NC(=O)c4ccccc4)C(C)C)n3)oc2C)n1 [Wang 537.59] | – | – | TC50 [2]: >1000 µg/mL; IC50 (influenza A virus): 1.29 µg/mL (≈ 2.4 µM)
CCCCc1oc(-c2nccs2)nc1C(=O)OCC [Compound C280-2] | > 100 µM | – | DNA replication IC26 (hepatitis B virus (HBV); ICX: concentration with 26% inhibition of HBV-DNA replication, IC50 not calculable): IC26 = 0.41 uM
COC(=O)c1nc(-c2csc([C@@H](NC(=O)CC3=CCCCC3)C(C)C)n2)oc1C [Wang 417.52] | – | – | TC50 [2]: 231.12 µg/mL (≈ 554 µM); IC50 (influenza A virus): 68.7 µg/mL (≈ 165 µM)
CCCCc1oc(-c2ccc(CCC)s2)nc1C(=O)OCC [Compound C321-1] | 80 µM | 5.23 | –
CCCCc1oc(-c2cccs2)nc1C(=O)OCC [Compound C279-2] | 71.8 µM | 4.28 | –
CCOC(=O)c1nc(-c2nccs2)oc1C1CCCCC1 [Compound C306] | > 100 µM | 6.10 | –
CC(C)Cc1sc(-c2nccs2)nc1C(=O)N(C)C [Compound C295-3] | – | – | DNA replication IC12 (hepatitis B virus (HBV); IC50 not calculable): IC12 = 1.23 uM
c1ccc(-c2cnc(-c3cccs3)[nH]2)cc1 [Compound C226] | 53.2 µM | 5.64 | –
COC(=O)c1nc(-c2csc([C@@H](NC(=O)c3ccccc3OC)C(C)C)n2)oc1C [Wang429.49] | – | – | TC50 [2]: 333.33 µg/mL (≈ 776 µM); IC50 (influenza A virus): 47.7 µg/mL (≈ 111 µM)
CCOC(=O)c1nc(-c2nccs2)[nH]c1C1CC1 [Compound C263-1] | > 100 µM | 5.43 | –
COC(=O)c1nc(-c2csc([C@@H](NC(=O)CC=C(C)C)C(C)C)n2)oc1C [Wang391.49-2] | – | – | TC50 [2]: >1000 µg/mL; IC50 (influenza A virus): > 192 µg/mL
CC(C)Cc1sc(-c2nccs2)nc1C(N)=O [Compound C267] | – | – | DNA replication IC89 (hepatitis B virus (HBV); IC50 not calculable): IC89 = 33 uM

SMILES | CC50 [1] | pIC50 (hepatitis B virus (HBV); [3]) | other results
CCOC(=O)c1nc(-c2ccc(C)s2)[nH]c1CC(C)C [Compound C292] | 139 µM | 5.33 | –
CCOC(=O)c1nc(-c2cc3ccccc3s2)[nH]c1CC(C)C [Compound C328] | > 7.5 µM | 6.72 | –
CCOc1cnc(-c2oc(-c3cccs3)nc2C(=O)c2ccccc2)o1 [Compound C352] | > 33.3 µM | 5.08 | –
c1ccc(-c2cnc(-c3cccs3)o2)cc1 [Compound C227] | > 100 µM | 5.85 | –
CCOC(=O)c1nc(-c2nccs2)[nH]c1C1CCCC1 [Compound C291] | > 100 µM | 5.26 | –
CCOC(=O)c1nc(-c2cc3ccccc3s2)sc1CC(C)C [Compound C345] | > 88.1 µM | – | pIC50 (hepatitis B virus (HBV); [4]): 5.88
CC(C)Cc1sc(-c2nccs2)nc1C(=O)Nc1ccccc1 [Compound C343] | – | – | DNA replication IC19 (hepatitis B virus (HBV); ICX: concentration with 19% inhibition of HBV-DNA replication, IC50 not calculable): IC19 = 1.23 uM
CCOC(=O)c1nc(-c2cc3ccccc3s2)oc1CC(C)C [Compound C329] | > 100 µM | – | DNA replication IC41.8 (hepatitis B virus (HBV); ICX: concentration with 41.8% inhibition of HBV-DNA replication, IC50 not calculable): IC41.8 = 4 uM
CCOC(=O)c1nc(-c2ccc(C)s2)oc1CC(C)C [Compound C293] | 80 µM | 3.90 | –
CNC(=O)c1nc(-c2nccs2)sc1CC(C)C [Compound C281] | – | – | DNA replication IC94 (hepatitis B virus (HBV); ICX: concentration with 94% inhibition of HBV-DNA replication, IC50 not calculable): IC94 = 33 uM
CCOC(=O)c1nc(-c2cscn2)sc1CC(C)C [Compound C296-3] | 116 µM | 6.85 | –
CCCCc1sc(-c2nccs2)nc1C(=O)OCC [Compound C296-2] | > 100 µM | – | DNA replication IC12 (hepatitis B virus (HBV); IC50 not calculable): IC12 = 0.41 uM
CCOC(=O)c1nc(-c2nccs2)oc1CC(C)C [Compound C280-1] | > 100 µM | – | –
CCOC(=O)c1nc(-c2cc3ccccc3[nH]2)[nH]c1CC(C)C [Compound C311-2] | 3.5 µM | 7.15 | –
CCOC(=O)c1nc(-c2cc3ccccc3[nH]2)sc1CC(C)C [Compound C328-2] | 21.7 µM | – | –
CCOC(=O)c1nc(-c2ccc(CC)s2)oc1CC(C)C [Compound C307] | 80 µM | 4.65 | –
CCCCc1sc(-c2cccs2)nc1C(=O)OCC [Compound C295-1] | 50 µM | 4.93 | –
CCOC(=O)c1nc(-c2cccs2)oc1C1CCCCC1 [Compound C305-1] | > 100 µM | 5.59 | –
CCCc1ccc(-c2nc(C(=O)OCC)c(CC(C)C)o2)s1 [Compound C321-3] | 80 µM | – | DNA replication IC27 (hepatitis B virus (HBV); ICX: concentration with 27% inhibition of HBV-DNA replication, IC50 not calculable): IC27 = 1.23 uM
CCOC(=O)c1nc(-c2cccs2)oc1CC(C)C [Compound C279-3] | > 100 µM | – | –
CCCCc1[nH]c(-c2nccs2)nc1C(=O)OCC [Compound C279-1] | 94.7 µM | – | DNA replication IC40 (hepatitis B virus (HBV); ICX: concentration with 40% inhibition of HBV-DNA replication, IC50 not calculable): IC40 = 12.4 uM
CCOC(=O)c1nc(-c2nccs2)[nH]c1C1CCCCC1 [Compound C305-2] | > 100 µM | 5.39 | –
c1ccc(-c2cnc(-c3cccs3)s2)cc1 [Compound C243] | 84.5 µM | 6.39 | –
CCOC(=O)c1nc(-c2ccc(C)s2)sc1CC(C)C [Compound C309] | > 100 µM | – | DNA replication IC14.2 (hepatitis B virus (HBV); ICX: concentration with 14.2% inhibition of HBV-DNA replication, IC50 not calculable): IC14.2 = 0.39 uM
CC(C)Cc1cnc(-c2nccs2)o1 [Compound C208] | > 100 µM | 4.45 | –
CCOC(=O)c1nc(-c2cccs2)sc1C1CCCCC1 [Compound C321-2] | 28.2 µM | – | pIC50 (hepatitis B virus (HBV); [4]): 5.78
CCOC(=O)c1nc(-c2nc(CC)cs2)sc1CC(C)C [Compound C324-2] | > 100 µM | 6.85 | –
